We go through five compounds from US5916908A, “Pharmaceutical pyrazole compositions useful as inhibitors of protein kinases” (COR Therapeutics, Inc., priority 1995, dated 1999).

Read-outs that look alike come from different tables or passages of the source.

One experiment addresses T1, human alpha PDGFR (Homo sapiens, UniProt P16234).
T1 construct: expressed in transfected cells; host or cells: 32D-αR (mouse hematopoietic cell line 32D)
As to the kind of experiment: alpha PDGFR autophosphorylation in 32D-αR cells. It counts as cell-based. Conditions: for inhibition of protein kinase activity of αPDGFR: compounds of Table 1B, evaluated similar to Example 1. From the text: The stimulation of cell proliferation by growth factors such as PDGF, FGF and EGF is dependent upon their induction of autophosphorylation of each of their respective receptor's tyrosine kinases. Therefore, the ability of a PTK inhibitor to block cellular proliferation induced by these growth factors is directly correlated with its ability to block receptor autophosphorylation. To measure alpha PDGFR autophosphorylation a previously described mouse hematopoietic cell line, 32D-αR, which had been engineered to overexpresses the human alpha PDGFR was used. These cells were grown in suspension to 10^6 cells/ml in RPMI (Gibco BRL) media containing 10% fetal bovine serum and 5% WEHI conditioned media (tissue culture media conditioned by WEHI cells available from ATCC) as previously described. The cells were pelleted by low speed centrifugation and resuspended in serum-free RPMI prior to distribution at 500,000 cells/well in 96 well conical bottom microtiter plates (Falcon). Compounds (0.01-30 μM) were added to the wells at room temperature 15 minutes prior to the addition of PDGF AA (15 ng/ml) and the incubation was continued on ice for 90 minutes in a final incubation volume of 100 μl. The cells were then pelleted at 2000 rpm for 10 minutes at 4° C. and 50 μl of freshly prepared lysis buffer (20 mM Tris at pH 7.3, 150 mM NaCl, 1% Triton X-100, 1 mM phenylmethyl-sulfonyl fluoride (PMSF), 1 mM sodium orthovanadate, […] and 10 mg/ml leupeptin) was added directly to each well, incubation was continued for 10 minutes on ice and cell lysis was facilitated by vigorous agitation on a plate shaker. The cell lysates were cleared by centrifugation at 2,000 rpm for 10 minutes prior to analysis.
In a separate microtiter plate, monoclonal antibodies (prepared at COR Therapeutics, Inc.) directed against the extracellular domain of the alpha PDGFR (MAb αR10) or the beta PDGFR (MAb 1B5B11) were immobilized by incubating 0.5 μg of antibody per well at 4° C. for 18 hours in 23 mM Tris at pH 8.0, 68 mM NaCl, 14 mM ammonium bicarbonate and 0.01% sodium azide. Unbound antibody was removed and the wells were blocked with 25 mM N-(2-hydroxyethyl)piperazine-N'-(2-ethanesulfonic acid) (HEPES) pH 7.6, 100 mM NaCl, and 0.2% Tween 20 just prior to the addition of cell lysate that had been diluted 1:2 in binding buffer (blocking buffer with 0.3% gelatin). 32D-αR or HR5-βR cell lysate was incubated with immobilized MAb αR10 or MAb 1B5B11, respectively, for 2 hours at room temperature and wells were washed 3 times with 200 μl of wash buffer (phosphate buffered saline "PBS", 0.01% Tween 20). […] Product formation was monitored at 650 nm using a microtiter plate reader (Molecular Devices).

In another experiment the target is T2, human FGFR-1 (Homo sapiens, UniProt P11362).
T2 construct: expressed in transfected cells; host or cells: CHO
Kind of experiment: FGFR-1 autophosphorylation in CHO cells. Type of experiment: cell-based. Here is the method:
In order to measure FGFR-1 autophosphorylation, the human FGFR-1 cDNA was stably over-expressed in CHO cells using standard techniques. These cells were grown to confluency in RPMI with 10% fetal bovine serum, the media was replaced with serum-free RPMI and incubation continued for 18 hours prior to stimulation with βFGF (75 ng/ml) for 10 min. at 37° C. in the absence or presence of PTK inhibitors in a concentration range of 0.1-30 μM. Cell lysates were prepared under the same conditions as described above for the EGFR assay. Lysates were incubated with a monoclonal antibody directed against the FGFR-1 extracellular domain (MAb 1H9D3 which was prepared at COR) and the immunoprecipitated receptor was subjected to SDS-PAGE and Western blot analysis with 4G10 horse radish peroxidase conjugated antiphosphotyrosine antibodies (UBI) and detection was done by chemiluminescence (Amersham).

Another experiment relates to 32D-αR cells. As to the kind of experiment: PDGF induced proliferation ([3H]thymidine incorporation) in 32D-αR cells. It counts as cell-based. Conditions: Mus musculus. The protocol: Briefly, 32D-αR cells were grown in interleukin 3 (IL-3)-conditioned RPMI media with 10% fetal bovine serum and washed 2 times with RPMI with 10% fetal bovine serum, resuspended at 5×10^5 cells/ml in the same media and then dispensed at 250 μl/well in 24 well plates (Falcon). […] The cells were incubated for 43 hours followed for a further 3 hour incubation with [^3 H]thymidine (10 μCi/well). The cells are then harvested with an automated cell harvester, filters are placed in liquid scintillation mixture and counted in a β counter.
On the technique in general: Incorporation of labelled thymidine or its analogues reports DNA synthesis.

For another experiment, the system named is CCD18 cells. Kind of experiment: inhibition of cell proliferation under normal tissue culture conditions, CCD18. Type of experiment: cell-based. Conditions: Homo sapiens, 96 h, read-out: IC50 CCD18.
Another experiment concerns the target src-kinase (Homo sapiens, UniProt P12931). Kind of experiment: inhibition of recombinant c-src kinase. Particulars: for potency on src kinase activity compared with PDGFR kinase activity: src vs PDGFR.
A further experiment concerns the target Protein Kinase A (PKA) (Homo sapiens, UniProt P17612). Kind of experiment: Protein Kinase A assay (non-radioactive).
In another experiment the test system is Protein Kinase C (PKC). Kind of experiment: Protein Kinase C assay (non-radioactive). Particulars: 40 μM.
The next experiment addresses human beta PDGFR (Homo sapiens, UniProt P09619). As to the kind of experiment: beta PDGFR autophosphorylation in HR5-βR cells. Particulars: for inhibition of protein kinase activity of βPDGFR: compounds of Table 1B, evaluated similar to Example 1.
Another experiment has as its system WS1 cells. As to the kind of experiment: inhibition of cell proliferation under normal tissue culture conditions, WS1. Particulars: Homo sapiens, WS1, 96 h, read-out: IC50 WS1.
Another experiment concerns HS27 cells. As to the kind of experiment: inhibition of cell proliferation under normal tissue culture conditions, HS27. Conditions: Homo sapiens, HS27, 96 h, read-out: IC50 HS27.
Another experiment deals with HS68 cells. As to the kind of experiment: inhibition of cell proliferation under normal tissue culture conditions, HS68. Particulars: Homo sapiens, Hs68, 96 h, read-out: IC50 HS68.
A further experiment concerns HR5-βR cells. Kind of experiment: inhibition of cell proliferation under normal tissue culture conditions, HR5-βR. Conditions: for IC50: Cricetulus griseus.
Experiment [1] relates to human cell lines (HS68, HS 27, CCD18, WS1). Kind of experiment: inhibition of proliferation of human cell lines under standard tissue culture conditions (collective statement).
In the next experiment the target is EGFR (Homo sapiens, UniProt P00533). Kind of experiment: EGFR autophosphorylation in MDA MB 468 cells. It counts as cell-based. Conditions: EGF 100 ng/ml.
Sequence of EGFR (P00533 25-1210): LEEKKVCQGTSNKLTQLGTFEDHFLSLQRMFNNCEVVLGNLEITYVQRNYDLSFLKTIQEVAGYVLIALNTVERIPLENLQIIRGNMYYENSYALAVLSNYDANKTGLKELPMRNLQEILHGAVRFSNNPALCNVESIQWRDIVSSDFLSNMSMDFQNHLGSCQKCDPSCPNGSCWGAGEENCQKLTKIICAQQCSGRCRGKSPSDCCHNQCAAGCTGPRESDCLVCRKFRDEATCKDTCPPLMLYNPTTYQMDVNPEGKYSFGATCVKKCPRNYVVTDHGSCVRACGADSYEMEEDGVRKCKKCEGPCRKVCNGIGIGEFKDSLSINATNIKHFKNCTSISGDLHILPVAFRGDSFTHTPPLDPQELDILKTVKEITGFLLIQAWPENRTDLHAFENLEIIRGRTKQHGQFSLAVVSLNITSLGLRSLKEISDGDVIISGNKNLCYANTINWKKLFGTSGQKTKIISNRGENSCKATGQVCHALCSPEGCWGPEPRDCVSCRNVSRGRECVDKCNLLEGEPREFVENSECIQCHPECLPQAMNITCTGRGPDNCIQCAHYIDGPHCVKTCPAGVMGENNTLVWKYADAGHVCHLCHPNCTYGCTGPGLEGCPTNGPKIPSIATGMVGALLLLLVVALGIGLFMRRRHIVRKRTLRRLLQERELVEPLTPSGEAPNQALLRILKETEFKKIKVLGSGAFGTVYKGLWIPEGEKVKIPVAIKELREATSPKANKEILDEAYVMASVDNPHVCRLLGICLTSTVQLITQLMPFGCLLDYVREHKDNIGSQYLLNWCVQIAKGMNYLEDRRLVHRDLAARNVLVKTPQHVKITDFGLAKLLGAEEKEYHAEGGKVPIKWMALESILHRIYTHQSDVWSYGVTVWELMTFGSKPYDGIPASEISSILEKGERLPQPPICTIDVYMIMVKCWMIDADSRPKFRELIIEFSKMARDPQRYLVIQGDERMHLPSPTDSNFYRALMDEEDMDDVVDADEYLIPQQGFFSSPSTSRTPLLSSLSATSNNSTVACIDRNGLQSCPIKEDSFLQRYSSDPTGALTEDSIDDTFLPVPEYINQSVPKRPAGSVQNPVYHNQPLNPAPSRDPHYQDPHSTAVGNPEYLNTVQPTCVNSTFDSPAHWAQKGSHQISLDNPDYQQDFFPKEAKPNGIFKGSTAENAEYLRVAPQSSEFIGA

Sequence of human beta PDGFR (P09619 33-1106): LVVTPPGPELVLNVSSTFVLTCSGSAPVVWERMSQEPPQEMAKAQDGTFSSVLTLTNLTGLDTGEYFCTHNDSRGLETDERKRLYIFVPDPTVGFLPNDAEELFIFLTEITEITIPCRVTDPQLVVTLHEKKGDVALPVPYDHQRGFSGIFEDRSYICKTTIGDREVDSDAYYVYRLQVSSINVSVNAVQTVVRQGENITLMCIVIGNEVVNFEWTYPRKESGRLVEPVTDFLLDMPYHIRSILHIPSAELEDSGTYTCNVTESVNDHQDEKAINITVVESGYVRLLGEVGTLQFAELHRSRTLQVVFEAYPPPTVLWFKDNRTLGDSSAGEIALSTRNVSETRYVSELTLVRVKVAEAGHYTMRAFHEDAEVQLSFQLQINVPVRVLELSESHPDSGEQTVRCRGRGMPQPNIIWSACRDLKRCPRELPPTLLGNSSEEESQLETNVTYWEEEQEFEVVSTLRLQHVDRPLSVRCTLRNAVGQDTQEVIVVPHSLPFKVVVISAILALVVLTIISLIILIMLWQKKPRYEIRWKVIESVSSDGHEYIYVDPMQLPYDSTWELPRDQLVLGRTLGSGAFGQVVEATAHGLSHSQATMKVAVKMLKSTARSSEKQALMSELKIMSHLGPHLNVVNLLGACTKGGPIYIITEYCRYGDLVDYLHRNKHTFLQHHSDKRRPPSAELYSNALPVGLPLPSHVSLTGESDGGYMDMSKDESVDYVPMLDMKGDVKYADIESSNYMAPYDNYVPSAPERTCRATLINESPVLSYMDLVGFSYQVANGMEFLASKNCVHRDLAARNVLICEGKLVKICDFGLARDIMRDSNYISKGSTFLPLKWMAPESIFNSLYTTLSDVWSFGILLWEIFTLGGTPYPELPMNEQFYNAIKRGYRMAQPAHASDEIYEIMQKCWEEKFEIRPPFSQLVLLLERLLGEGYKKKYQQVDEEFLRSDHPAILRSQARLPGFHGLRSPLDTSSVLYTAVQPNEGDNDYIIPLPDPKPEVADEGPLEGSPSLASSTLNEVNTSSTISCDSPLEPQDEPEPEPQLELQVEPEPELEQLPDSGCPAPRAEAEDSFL
T1 sequence (P16234 24-1089): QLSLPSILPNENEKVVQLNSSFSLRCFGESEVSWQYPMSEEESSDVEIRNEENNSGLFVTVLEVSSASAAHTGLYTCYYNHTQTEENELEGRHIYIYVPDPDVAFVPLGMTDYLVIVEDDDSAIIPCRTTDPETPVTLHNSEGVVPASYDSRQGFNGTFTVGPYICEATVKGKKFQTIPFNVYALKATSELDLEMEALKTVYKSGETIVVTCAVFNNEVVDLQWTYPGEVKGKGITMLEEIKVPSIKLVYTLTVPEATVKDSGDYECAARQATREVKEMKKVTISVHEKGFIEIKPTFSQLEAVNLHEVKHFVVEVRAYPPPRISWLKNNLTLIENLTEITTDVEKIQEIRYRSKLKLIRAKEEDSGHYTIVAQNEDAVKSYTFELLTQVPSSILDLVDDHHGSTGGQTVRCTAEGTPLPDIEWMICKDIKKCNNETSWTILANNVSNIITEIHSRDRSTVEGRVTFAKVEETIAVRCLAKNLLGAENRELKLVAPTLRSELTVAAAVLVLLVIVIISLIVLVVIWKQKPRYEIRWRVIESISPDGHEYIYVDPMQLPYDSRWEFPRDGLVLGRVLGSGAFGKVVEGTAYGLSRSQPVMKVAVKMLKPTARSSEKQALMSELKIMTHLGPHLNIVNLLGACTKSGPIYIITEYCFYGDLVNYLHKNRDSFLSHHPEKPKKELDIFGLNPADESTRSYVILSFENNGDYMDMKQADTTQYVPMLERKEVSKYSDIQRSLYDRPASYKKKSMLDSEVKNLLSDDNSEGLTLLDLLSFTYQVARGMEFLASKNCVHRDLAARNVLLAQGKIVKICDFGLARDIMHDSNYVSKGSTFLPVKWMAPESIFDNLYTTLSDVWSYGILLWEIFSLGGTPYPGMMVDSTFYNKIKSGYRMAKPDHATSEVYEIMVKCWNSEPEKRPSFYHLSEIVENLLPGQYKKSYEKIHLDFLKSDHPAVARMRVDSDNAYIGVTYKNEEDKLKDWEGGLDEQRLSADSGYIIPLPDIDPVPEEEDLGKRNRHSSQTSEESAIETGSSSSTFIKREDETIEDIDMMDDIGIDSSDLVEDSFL
Sequence of src-kinase (P12931 whole entry): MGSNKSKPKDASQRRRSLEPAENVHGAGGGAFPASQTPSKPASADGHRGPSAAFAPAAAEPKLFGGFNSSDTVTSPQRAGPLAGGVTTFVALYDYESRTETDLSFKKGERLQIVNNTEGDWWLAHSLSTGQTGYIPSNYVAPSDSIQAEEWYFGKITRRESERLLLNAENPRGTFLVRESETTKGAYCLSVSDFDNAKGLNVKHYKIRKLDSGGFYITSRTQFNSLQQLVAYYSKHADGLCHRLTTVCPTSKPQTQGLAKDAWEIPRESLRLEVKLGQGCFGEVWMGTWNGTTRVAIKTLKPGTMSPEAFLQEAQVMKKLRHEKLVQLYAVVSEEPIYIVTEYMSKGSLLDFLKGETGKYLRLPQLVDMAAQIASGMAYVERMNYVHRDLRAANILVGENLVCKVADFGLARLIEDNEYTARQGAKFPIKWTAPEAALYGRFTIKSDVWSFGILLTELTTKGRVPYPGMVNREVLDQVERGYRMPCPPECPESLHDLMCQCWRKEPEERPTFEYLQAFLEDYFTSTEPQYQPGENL
T2 sequence (P11362 22-822): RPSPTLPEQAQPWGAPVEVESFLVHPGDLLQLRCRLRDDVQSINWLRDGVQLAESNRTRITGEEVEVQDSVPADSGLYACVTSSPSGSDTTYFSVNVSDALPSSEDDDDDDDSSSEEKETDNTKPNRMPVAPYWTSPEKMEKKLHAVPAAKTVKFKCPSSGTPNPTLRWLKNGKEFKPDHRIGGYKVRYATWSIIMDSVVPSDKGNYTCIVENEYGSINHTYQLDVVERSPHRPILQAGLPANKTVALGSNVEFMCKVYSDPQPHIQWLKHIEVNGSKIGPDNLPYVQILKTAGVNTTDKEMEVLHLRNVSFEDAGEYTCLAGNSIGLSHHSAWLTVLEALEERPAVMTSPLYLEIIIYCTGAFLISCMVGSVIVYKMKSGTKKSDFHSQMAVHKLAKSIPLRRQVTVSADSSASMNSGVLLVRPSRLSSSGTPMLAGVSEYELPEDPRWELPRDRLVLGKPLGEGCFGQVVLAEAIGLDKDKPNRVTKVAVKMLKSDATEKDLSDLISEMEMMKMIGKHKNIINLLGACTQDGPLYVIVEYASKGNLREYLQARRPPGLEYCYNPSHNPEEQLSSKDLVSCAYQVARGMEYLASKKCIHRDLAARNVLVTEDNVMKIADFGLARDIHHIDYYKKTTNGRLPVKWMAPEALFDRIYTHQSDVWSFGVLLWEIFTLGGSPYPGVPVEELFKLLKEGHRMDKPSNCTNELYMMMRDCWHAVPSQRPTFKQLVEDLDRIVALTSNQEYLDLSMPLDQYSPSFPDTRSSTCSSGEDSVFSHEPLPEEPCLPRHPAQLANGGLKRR
Procedure for EGFR: These cells were grown to confluency in 6-well plates and incubated in serum-free Dulbecco's Modified Eagle Medium (DMEM) 18 hours. The cells were exposed to various concentrations (0.01-30 μM) of compounds for 15 minutes and then to EGF (100 ng/ml) for 10 minutes at 37° C. The cells were scraped and lysates were prepared in the same buffer as described for 32D-αR cells prior to fractionation by conventional SDS PAGE followed by Western blot analysis. For this, proteins were transferred onto nitrocellulose and the membrane was blocked in Tris buffer saline (TBS), pH 7.0, 0.1% Tween 20, 5% dry milk. The membrane was blotted with anti-phosphotyrosine antibody (UBI, 1 μg/ml) in binding buffer (TBS, 0.1% Tween 20; 1% dry milk) for 2 hours at room temperature. Detection was performed using a goat anti-rabbit-horseradish peroxidase conjugated IgG (Boehringer Mannheim). The blot was developed using a chemiluminescent system (Amersham).

As for `O=C(Nc1cc(-c2ccccc2)[nH]n1)c1ccccc1` [Compound 1, 3-benzoylamino-5-phenylpyrazole], the IC50 was 170 nM on human alpha PDGFR (Table 2, autophosphorylation, 32D-αR cells, PDGF AA 15 ng/ml, read-out: IC50 αPDGFR); over 30000 nM against human FGFR-1 (Table 2, autophosphorylation, CHO cells, βFGF 75 ng/ml); 700 nM with 32D-αR cells (read-out: concentration blocking PDGF induced thymidine incorporation by 50%); over 30000 nM in the experiment with CCD18 cells; 8000 nM at src-kinase; over 40000 nM on Protein Kinase A (PKA). For the same compound, the IC50 is 220 nM on human beta PDGFR; over 30000 nM in the experiment with WS1 cells; over 30000 nM with HS27 cells; over 30000 nM in the experiment with HS68 cells; 28000 nM with HR5-βR cells (96 h, read-out: IC50 HRS-βR). Further, the “inhibition of alpha PDGFR autophosphorylation” value against human alpha PDGFR (compared with beta receptor) is “inhibit alpha PDGFR autophosphorylation over the same concentration range as that observed for the beta receptor”. Moreover, the “inhibition of FGFR-1 autophosphorylation” value against human FGFR-1 (concentrations as high as 30 μM) is reported as “no detectable inhibition”. Besides, the IC100 in the experiment with 32D-αR cells (PDGF AA 30 ng/ml, FIG. 2, read-out: concentrations at which mitogenicity was completely inhibited) is over 1 µM. In addition, the “potency on src kinase activity compared with PDGFR kinase activity” value (“potency … compared with PDGFR kinase activity” for short) on src-kinase was “selective for inhibiting PDGFR kinase activity”. Moreover, the inhibition at 40 µM on Protein Kinase A (PKA) (read-out: reduction in PKA activity) was under 50%. In the experiment on Protein Kinase C (PKC), the “reduction in PKC activity” value was under 50%. Moreover, the IC (maximal) at human beta PDGFR (read-out: concentration at which inhibition of beta PDGFR autophosphorylation was maximal) was 5 µM. Further, the inhibition at 30 µM in [1] (Homo sapiens, 96 h, read-out: decrease in cell growth of human cell lines) was 10 to 20%. The “decrease in cell growth of human cell lines” value in experiment [1] (concentrations up to 10 μM) is given as “no decrease in cell growth”.

As for `O=C(Nc1cc(-c2ccc(Cl)cc2)n[nH]1)c1ccccc1` [Compound 45], the “inhibition of protein kinase activity of αPDGFR” value against human alpha PDGFR is listed as “exhibited the best activities”. Moreover, at human beta PDGFR, the “inhibition of protein kinase activity of βPDGFR” value is “exhibited the best activities”.

Take `O=C(Nc1cc(-c2cccs2)n[nH]1)c1ccccc1` [Compound 46]: at human alpha PDGFR, the “inhibition of protein kinase activity of αPDGFR” value is on record as “exhibited the best activities”. Moreover, the “inhibition of protein kinase activity of βPDGFR” value against human beta PDGFR was “exhibited the best activities”.

On to `COC(=O)[C@@]1(O)C[C@H]2O[C@]1(C)n1c3ccccc3c3c4c(c5c6ccccc6n2c5c31)C(=O)NC4` [Compound K252a], for which the IC50 at EGFR is 1000 nM; on src-kinase (read-out: IC50 src-kinase, recombinant c-src, 50 μM ATP), 20 nM; at src-kinase (read-out: src kinase IC50, recombinant c-src), 20 nM; in the experiment on HR5-βR cells (96 h, read-out: IC50 HRS-βR) it was 130 nM; in the experiment on HR5-βR cells (read-out: IC50 HR5-βR cell growth), 130 nM. Also, on src-kinase, the “potency … compared with PDGFR kinase activity” value is given as “equally or more potent at inhibiting src kinase activity as they are PDGFR kinase activity”. Further, in the experiment on HR5-βR cells, the “HR5-βR growth inhibition compared with inhibition of PDGFR phosphorylation” value is listed as “lower concentrations than those required to inhibit PDGFR phosphorylation”.

`CN[C@@H]1C[C@H]2O[C@@](C)([C@@H]1OC)n1c3ccccc3c3c4c(c5c6ccccc6n2c5c31)C(=O)NC4` [Staurosporin, reference compound]: the “potency … compared with PDGFR kinase activity” value at src-kinase is “equally or more potent at inhibiting src kinase activity as they are PDGFR kinase activity”. Besides, the “growth of all of the human cell lines” value in [1] (0.01 μM) is given as “completely blocked”.
